Test results from patent US11396505B2, “Inhibitors of CaMKK2 and uses of same” (New York University, priority 2019, dated 2022).

Experiments:
CaMKK2 [1] = biological target: T1, CaMKK2 (Homo sapiens, UniProt Q96RR4); experiment: CaMKK1/2 biochemical assay, 32P radiometric kinase assay (CaMKK2); conditions: for inhibition at 0.2 µM: 0.2 μM compound, read-out: CaMKK2 % inhibition @ concentrations shown, 0.2 μM; for inhibition at 0.5 µM: 0.5 μM compound, read-out: CaMKK2 % inhibition @ concentrations shown, 0.5 μM; for inhibition at 10 µM: 10 μM compound, read-out: CaMKK2 % inhibition @ concentrations shown, 10 μM
Procedure: (§1) The following is an example of a CaMKK1/2-biochemical assay. Compounds were tested for CaMKK1/2 inhibition using a ^32P radiometric kinase assay as follows: A freshly prepared kinase reaction buffer (20 mM Hepes (pH 7.5), 10 mM MgCl2, 1 mM EGTA, 0.02% Brij35, 0.02 mg/ml BSA, 0.1 mM Na3VO4, 2 mM DTT, 1% DMSO) was treated with Myelin Basic Protein (final concentration=20 μM), CaCl2) (final concentration=1.5 mM), Calmodulin (final concentration=0.96 μM) and either CaMKK2 (final reaction concentration=120 nM) or CaMKK1 (final reaction concentration=150 nM) and gently mixed. Compounds were added as aliquots from 10 mM DMSO stock solutions such that the final compound concentration in the assay was either 10 μM, 0.5 μM or 0.2 μM. This mixture was allowed to incubate for 20 minutes at room temperature. ^32P-ATP (specific activity 10 μCi/μL) was added and the mixture was allowed to incubate for 2 hours at room temperature. The reaction mixture was spotted onto P81 ion exchange paper. The kinase activity was detected by the filter binding method.

CaMKK2 [2] = biological target: T1, CaMKK2; experiment: as above
CaMKK1 = CaMKK1 (Homo sapiens, UniProt Q8N5S9); experiment: CaMKK1/2 biochemical assay, 32P radiometric kinase assay (CaMKK1)
Procedure: as §1

[3] = despite achieving high plasma concentrations; cited from earlier work
ArH receptor = biological target: T2, ArH receptor (Homo sapiens, UniProt P35869); conditions: cited from earlier work
T2 sequence (P35869 11-848): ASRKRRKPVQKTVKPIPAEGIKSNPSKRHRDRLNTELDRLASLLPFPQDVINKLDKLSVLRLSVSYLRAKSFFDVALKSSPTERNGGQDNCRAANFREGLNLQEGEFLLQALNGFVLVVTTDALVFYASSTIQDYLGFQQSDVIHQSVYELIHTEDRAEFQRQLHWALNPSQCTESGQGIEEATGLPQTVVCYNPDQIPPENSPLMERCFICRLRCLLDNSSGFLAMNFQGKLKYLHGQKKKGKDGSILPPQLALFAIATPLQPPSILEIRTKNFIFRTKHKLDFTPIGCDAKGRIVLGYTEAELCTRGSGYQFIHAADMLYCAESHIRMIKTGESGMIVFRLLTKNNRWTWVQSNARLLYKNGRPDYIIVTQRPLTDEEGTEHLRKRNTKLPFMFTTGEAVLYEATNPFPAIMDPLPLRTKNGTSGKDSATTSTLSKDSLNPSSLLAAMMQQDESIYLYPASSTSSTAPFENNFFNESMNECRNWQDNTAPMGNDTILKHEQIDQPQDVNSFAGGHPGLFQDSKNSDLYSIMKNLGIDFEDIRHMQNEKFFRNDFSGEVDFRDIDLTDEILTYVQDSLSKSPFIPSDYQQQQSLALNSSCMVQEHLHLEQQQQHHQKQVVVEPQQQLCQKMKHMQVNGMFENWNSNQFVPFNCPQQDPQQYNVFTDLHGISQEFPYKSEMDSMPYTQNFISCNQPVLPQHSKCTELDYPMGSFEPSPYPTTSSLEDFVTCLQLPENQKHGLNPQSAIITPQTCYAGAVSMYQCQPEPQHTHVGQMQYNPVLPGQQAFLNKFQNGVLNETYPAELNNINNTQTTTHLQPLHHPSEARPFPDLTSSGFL

[4] = cited from earlier work
[5] = cited from earlier work; remark: listed apart in the source

O=C1OCCN1c1ccc2[nH]nc(-c3cc4ccccc4[nH]3)c2c1 [Example 3, 3-(3-(1H-indol-2-yl)-1H-indazol-5-yl)oxazolidin-2-one]
inhibition at 0.2 µM (CaMKK2 [1]): 80% | inhibition at 0.5 µM (CaMKK2 [1]): 94% | inhibition at 10 µM (CaMKK2 [1]): 100% | IC50 (CaMKK2 [2]): 70 nM | IC50 (CaMKK1): 141 nM

O=C1OCCN1c1ccc2[nH]nc(/C=C/c3ccccn3)c2c1 [Example 4, (E)-3-(3-(2-(pyridin-2-yl)vinyl)-1H-indazol-5-yl)oxazolidin-2-one]
inhibition at 0.2 µM (CaMKK2 [1]): 55% | inhibition at 0.5 µM (CaMKK2 [1]): 81% | inhibition at 10 µM (CaMKK2 [1]): 98% | IC50 (CaMKK2 [2]): 190 nM

O=C1OCCN1c1ccc2[nH]nc(-c3ccc(Cl)cc3)c2c1 [Example 24, 3-(3-(4-chlorophenyl)-1H-indazol-5-yl)oxazolidin-2-one]
Biochemical Data CaMKK2, inh @ 0.2 μM (CaMKK2 [1]): 41% inh @ 0.2 μM | inhibition at 0.2 µM (CaMKK2 [1]): 41% | Biochemical Data CaMKK1, inh @ 0.2 μM (CaMKK1): <5% inh @ 0.2 μM

O=C1OCCN1c1ccc2[nH]nc(-c3cccc(-c4ccccc4)c3)c2c1 [Example 26, 3-(3-([1,1′-biphenyl]-3-yl)-1H-indazol-5-yl)oxazolidin-2-one]
Biochemical Data CaMKK2, inh @ 0.2 μM (CaMKK2 [1]): 36% inh @ 0.2 μM | inhibition at 0.2 µM (CaMKK2 [1]): 36% | Biochemical Data CaMKK1, inh @ 0.2 μM (CaMKK1): <5% inh @ 0.2 μM

COc1ccc(/C=C/c2n[nH]c3ccc(N4CCOC4=O)cc23)cc1 [Example 31, (E)-3-(3-(4-methoxystyryl)-1H-indazol-5-yl)oxazolidin-2-one]
inhibition at 0.2 µM (CaMKK2 [1]): 81% | IC50 (CaMKK2 [2]): 33 nM | IC50 (CaMKK1): 536 nM

O=C1OCCCN1c1ccc2[nH]nc(-c3cc4ccccc4[nH]3)c2c1 [Example 40, 3-(3-(1H-indol-2-yl)-1H-indazol-5-yl)-1,3-oxazinan-2-one]
Biochemical Data CaMKK2, inh @ 0.2 μM (CaMKK2 [1]): 37% inh @ 0.2 μM | inhibition at 0.2 µM (CaMKK2 [1]): 37% | Biochemical Data CaMKK1, inh @ 0.2 μM (CaMKK1): <5% inh @ 0.2 μM

O=C1CCCCN1c1ccc2[nH]nc(-c3cc4ccccc4[nH]3)c2c1 [Example 41, 1-(3-(1H-indol-2-yl)-1H-indazol-5-yl)piperidin-2-one]
Biochemical Data CaMKK2, inh @ 0.2 μM (CaMKK2 [1]): 12% inh @ 0.2 μM | inhibition at 0.2 µM (CaMKK2 [1]): 12% | Biochemical Data CaMKK1, inh @ 0.2 μM (CaMKK1): <5% inh @ 0.2 μM

COc1cccc2cc(-c3nc([C@H]4CC[C@H](C(=O)O)CC4)n4ncnc(N)c34)[nH]c12 [OSI-027]
tissue and tumor penetration [3]: poor tissue and tumor penetration

O=C(O)c1ccc2c3c1cccc3c(=O)n1c3ccccc3nc21 [STO-609]
agonist of the ArH receptor (ArH receptor): 43 nM | permeability [4]: poor permeability | brain entry ([5]; 9.4 mg/kg ip dose): fails to enter the brain | plasma concentrations ([5]; 9.4 mg/kg ip dose): > 30 µM | tissue Cmax values ([5]; tissue penetration, 9.4 mg/kg ip): ≤ 1 µM | elimination completed in ([5]; tissues): ≤ 8 h (h)
